Experimental data as given in the SangsterLogP compilation.

Assay: method code SF-HPLC, from DOI: 10.1002/jps.2600840914, PMID: 8537890

| logP | Compound |
| --- | --- |
| 1.33 | Cc1cssc1=O |
| 4.06 | CCCCCc1cssc1=S |
| 3.95 | Cc1c(-c2ccccc2)ssc1=S |
| 3.51 | CCc1ssc(=S)c1CC |
| 1.26 | Cc1cc(=O)ss1 |
| 3.27 | S=c1ssc2c1CCCCC2 |
| 2.45 | Cc1ssc(=S)c1C |
| 3.43 | S=c1cc(Cc2ccccc2)ss1 |
| 2.24 | CCCc1cc(=O)ss1 |
| 3.75 | S=c1ssc2c1CCCCCC2 |
| 3.42 | CCCc1ssc(=S)c1C |
| 2.94 | CCc1c(C)ssc1=S |
| 3.82 | COc1ccc(-c2cc(=S)ss2)cc1 |
| 3.78 | Cc1ssc(=S)c1Cc1ccccc1 |
| 2.31 | CCc1cc(=S)ss1 |
| 2.83 | CCCc1cc(=S)ss1 |
| 2.18 | Cc1cssc1=S |
| 3.73 | Cc1ccc(-c2cssc2=S)cc1 |
| 3.2 | S=c1sscc1-c1ccccc1 |

| logP | Compound |
| --- | --- |
| 3.39 | CCCc1c(C)ssc1=S |
| 3.67 | S=c1cc(-c2ccccc2)ss1 |
| 3.76 | CCCc1ssc(=S)c1CC |
| 1.73 | Cc1ssc(=O)c1C |
| 1.58 | S=c1ccss1 |
| 2.38 | CCCc1cssc1=O |
| 1.69 | CCc1cc(=O)ss1 |
| 3.57 | S=c1ssc2ccccc12 |
| 4.26 | Cc1ccc(-c2cc(=S)ss2)cc1 |
| 2.95 | CCc1ssc(=S)c1C |
| 3.52 | CCc1ssc(=S)c1-c1ccccc1 |
| 2.53 | S=c1ssc2c1CCC2 |
| 3.18 | CCCc1cssc1=S |
| 3.17 | Cc1ssc(=S)c1-c1ccccc1 |
| 2.67 | CCc1cssc1=S |
| 1.87 | Cc1cc(=S)ss1 |
| 3.7 | CCCCc1cssc1=S |
| 4.1 | COc1ccc(-c2ssc(=S)c2C)cc1 |
